# Read-outs that look alike come from different tables or passages of the source. Starred links: 1 amine or outer side, 2 acyl side, 3 side chain; linkers in the order of their positions; H or OH if unused. Positions of bridges follow the written chain, without caps; N, C: chain ends. Non-standard residues stand in square brackets, D forms with d. Residues, ends and D or L forms follow the SMILES beside them. Chains are numbered I, II in the order given. Actinocin(9to1) = Cc1c2oc3c(C)ccc(C(=O)[*:1])c3nc-2c(C(=O)[*:2])c(N)c1=O; NMeV = CN[C@H](C(=O)O)C(C)C; Sar = CNCC(=O)O
# Legend:
# L1210 cells [1] = experiment: Life span of BDF1 mice inoculated ip with 10^6 L1210 leukemia cells; assay type: in vivo, mouse; settings: for T/C (%): ip day 1, Enantiomer A 37 mg/kg, Enantiomer B 173 mg/kg; for relative activity of the two enantiomers (words): mouse, in vivo; for Increased life span: qd days 1,3,5,7; for T/C: single QD day 1 ip (Table 14-b)
# Description: As illustrative examples of use of the compounds of the invention the following examples are given. […] These standard tests utilize protocols developed under the auspices of the Developmental Therapeutics Program, Division of Cancer Treatment, National Cancer Institute, Bethesda, Md., U.S.A. Except as otherwise indicated the tests conform to these protocols and are evaluated utilizing criteria defined by the protocols.
# (§1) Values below 25% are considered capable of producing effective therapy, those below 10% are considered good and those below 5% are considered very good. This expresses the percent of the cells which survived treatment based upon the original cells in the inoculum. Those tests expressed as increases in life span (% ILS) indicate the increased life span of the drug treated group compared to a control group.
# (§2) As an indicator of reproducible activity, compounds of the invention and other known cancer chemotherapeutic agents were screened against L1210 lymphoid leukemia in vivo utilizing the mouse as a test species. Normal NCI protocols for this test require 10^5 seed cells of the L1210 cell line.
# Cytosine Arabinoside must be given every three hours.
# Mice were inoculated intraperitoneally on day 0 with a million cells of murine leukemia L1210. Drug was given qd days 1, 4 and 7. Increased life span is the mean increase in the treated group presented as a percentage of the mean life span of control mice.
# Mice were inoculated intraperitoneally on day 0 with a million cells of murine leukemia L1210. Drugs were given qd days 1, 3, 5 and 7. Increased life span is presented as a percentage of the mean life span of control mice.
# L1210 cells [2] = experiment: L1210 cells surviving treatment (% of original inoculum); assay type: in vivo, mouse; settings: for L1210 cells surviving treatment (% of original inoculum): ip day 1, Enantiomer A 37 mg/kg, Enantiomer B 173 mg/kg
# From the text: as §1
# as §2, with “line. However for the purposes of tests with the L1210 cell line in testing the compounds of the invention for antitumor activity, a log greater, i.e. 10^6 cells were utilized.” for “line.”
# Tables 2-a and 2-b illustrate a dose response for Compound 19 against L1210 inoculated mice expressed as both increased life span compared to control and as the number of cells of the original inoculum surviving drug treatment. As is evident from the various regimens of drug treatment shown in Tables 2-a and 2-b, effective therapeutic effects are noted and a dose response to Compound 19 is evident. […] Cytosine Arabinoside must be given every three hours. Test results are given utilizing standard protocols based on mean survival time and are expressed as T/C percentages (treated animals/control animals).
# [3] = Solubility (maximum solubility); assay type: physicochemical
# [4] = test system: Human Colon Adenocarcinoma CX-1; settings: data from Goldin et al 1981; activity indicated at ≤20; cited from earlier work
# L1210 cells [5] = experiment: Bioassay of viable L1210 cells in brain after intracranial inoculation and ip drug; assay type: in vivo, mouse; settings: 24 hr after single ip dose (mg/kg): Methotrexate 12, Adriamycin 3, 6-Mercaptopurine 160, Cytosine Arabinoside 1200, Cyclophosphamide 140, Compound 19 173, Tiazofurin 1200, BCNU 20
# From the text: BDF1 mice were inoculated intracranially on day 0 with 1×10^5 L1210 cells. […] 24 hr after drug delivery the brains were collected, homogenized, and injected ip into untreated mice. Each mouse received the equivalent of half a brain. Thereafter, life span was monitored and, using inoculum-response data as a base of comparison, estimates were made of the numbers of viable cells in treated and control brains.
# [6] = Toxicity / maximum tolerated dosage in mice; assay type: in vivo; settings: mouse, in vivo, ip, single QD day 1 ip, read-out: Max. tolerated dosage
# Description: In Example N other compounds of the invention were tested against L1210 cells. […] Activity in Table 14-a is tabulated as both increases in life span and as cells surviving treatment and that in table 14-b as T/C.
molecule,measurement,setting,value
"Nc1nc([S+](N)[O-])c2ncn([C@@H]3O[C@H](CO)[C@@H](O)[C@H]3O)c2n1 (single isomer, unassigned) [Enantiomer A]",% ILS,"L1210 cells [1]; 37 mg/kg/inj bid day 1, total A 70.94, B 1.26, contaminant 1.80 mg/kg",44%
same,% ILS,"L1210 cells [1]; 37 mg/kg/inj printed qid day 1, total A 177.35, B 3.15, contaminant 4.50 mg/kg",0%
same,% ILS,"L1210 cells [1]; 37 mg/kg/inj qd day 1, total A 35.47, B 0.63, contaminant 0.90 mg/kg",22%
same,% ILS,"L1210 cells [1]; 37 mg/kg/inj qid day 1, total A 141.88, B 2.52, contaminant 3.60 mg/kg",72%
same,% ILS,"L1210 cells [1]; 37 mg/kg/inj tid day 1, total A 106.41, B 1.89, contaminant 2.70 mg/kg",72%
same,T/C (%),L1210 cells [1],108.7%
same,relative activity of the two enantiomers (words),L1210 cells [1],greater activity with respect to enantiomer B because of solubility differences
same,relative activity of the two enantiomers (words),L1210 cells [1]; listed as enantiomer A,comparable activity
same,Cells surviving treatment (% of original inoc.),"L1210 cells [2]; 37 mg/kg/inj bid day 1, total A 70.94 mg/kg",10%
same,Cells surviving treatment (% of original inoc.),"L1210 cells [2]; 37 mg/kg/inj qd day 1, total A 35.47 mg/kg",64%
same,Cells surviving treatment (% of original inoc.),"L1210 cells [2]; 37 mg/kg/inj qid day 1, total A 141.88 mg/kg",1%
same,Cells surviving treatment (% of original inoc.),"L1210 cells [2]; 37 mg/kg/inj tid day 1, total A 106.41 mg/kg",1%
same,L1210 cells surviving treatment (% of original inoculum),L1210 cells [2],182.8%
same,solubility,[3],about 3.7 mg per ml
"Nc1nc([S+](N)[O-])c2ncn([C@@H]3O[C@H](CO)[C@@H](O)[C@H]3O)c2n1 (single isomer, unassigned) [Enantiomer B]",T/C (%),L1210 cells [1],144.9%
same,relative activity of the two enantiomers (words),L1210 cells [1],comparable activity
same,L1210 cells surviving treatment (% of original inoculum),L1210 cells [2],7.5%
same,solubility,[3],about 17.3 mg per ml
O=c1[nH]cc(F)c(=O)[nH]1 [5-Fluorouracil],Activity rating δT/δC,[4],88
Nc1nc2nc[nH]c2c(=S)[nH]1 [6-Thioguanine],Activity rating δT/δC,[4],81
"Nc1nc2c(ncn2[C@@H]2O[C@H](CO)[C@@H](O)[C@H]2O)c(=S)[nH]1 [6-Thioguanosine, reference compound]",Increased life span,L1210 cells [1]; 8.1 mg/kg/inj injected,48%
same,Increased life span,L1210 cells [1]; 13 mg/kg/inj injected,38%
same,Increased life span,L1210 cells [1]; 22 mg/kg/inj injected,42%
same,Increased life span,L1210 cells [1]; 37 mg/kg/inj injected,45%
same,Increased life span,L1210 cells [1]; 62 mg/kg/inj injected,42%
same,Increased life span,L1210 cells [1]; 104 mg/kg/inj injected,42%
same,Increased life span,L1210 cells [1]; 173 mg/kg/inj injected,52%
"Cc1c2oc3c(C)ccc(C(=O)N[C@@H]4C(=O)N[C@H](C(C)C)C(=O)N5CCC[C@H]5C(=O)N(C)CC(=O)N(C)[C@@H](C(C)C)C(=O)O[C@@H]4C)c3nc-2c(C(=O)N[C@@H]2C(=O)N[C@H](C(C)C)C(=O)N3CCC[C@H]3C(=O)N(C)CC(=O)N(C)[C@@H](C(C)C)C(=O)O[C@@H]2C)c(N)c1=O [Actinomycin D] (I: T[dV]P[Sar][NMeV] / II: T[dV]P[Sar][NMeV]; ester I:1-I:C, II:1-II:C; linker I:N-II:N via Actinocin(9to1))",Activity rating δT/δC,[4],73
"COc1cccc2c1C(=O)c1c(O)c3c(c(O)c1C2=O)C[C@@](O)(C(=O)CO)C[C@@H]3O[C@H]1C[C@H](N)[C@H](O)[C@H](C)O1 [Adriamycin, reference compound]",Residual cells (% of control brain),L1210 cells [5],89.5%
same,Activity rating δT/δC,[4],72
"O=NN(CCCl)C(=O)NCCCl [BCNU, reference compound]",Residual cells (% of control brain),L1210 cells [5],1.6%
same,Activity rating δT/δC,[4],63
O=NN(CCCl)C(=O)NC1CCCCC1 [CCNU],Activity rating δT/δC,[4],77
O=C(O)CCCc1ccc(N(CCCl)CCCl)cc1 [Chlorambucil],Activity rating δT/δC,[4],60
O=NN(CCCl)C(=O)N[C@H]1C(O)O[C@H](CO)[C@@H](O)[C@@H]1O (some centres unmarked) [Chlorozotocin],Activity rating δT/δC,[4],75
N.N.[Cl][Pt][Cl] [Cis-Platinum],Activity rating δT/δC,[4],66
"NSc1nc(N)nc2nc[nH]c12 [Compound 2, 2-Aminopurine-6-sulfenamide]",MTD,"[6]; DMSO vehicle, BDF1 mice",37 mg/kg
same,MTD,"[6]; NaOH vehicle, BDF1 mice",104 mg/kg
"NSc1ncnc2c1ncn2[C@@H]1O[C@H](CO)[C@@H](O)[C@H]1O [Compound 6, 9-β-D-Ribofuranosyl-9H-purine-6-sulfenamide]",Max. sol. dosage,[3],480 mg/kg
same,MTD,[6]; L1210-inoculated BDF1 mice,480 mg/kg
"C[C@H]1O[C@@H](n2cnc3c([S+](N)[O-])nc(N)nc32)[C@H](O)[C@@H]1O (stereo partly drawn) [Compound 42, 2-Amino-9-(5-deoxy-β-D-ribofuranosyl)-9H-purine-6-sulfinamide]",T/C,L1210 cells [1]; NaOH vehicle,172
same,Max. sol. dosage,[3],104 mg/kg
"C[C@H]1O[C@@H](n2cnc3c(S(N)(=O)=O)nc(N)nc32)[C@H](O)[C@@H]1O [Compound 43, 2-Amino-9-(5-deoxy-β-D-ribofuranosyl)-9H-purine-6-sulfonamide]",T/C,L1210 cells [1],130
same,Max. sol. dosage,[3],480 mg/kg
"NSc1nc(N)nc2c1ncn2[C@H]1C[C@H](O)[C@@H](CO)O1 [Compound 45, 2-Amino-9-(2-deoxy-β-D-erythro-pentofuranosyl)-9H-purine-6-sulfenamide]",T/C,L1210 cells [1],172
same,Max. sol. dosage,[3],480 mg/kg
"Nc1nc([S+](N)[O-])c2ncn([C@@H]3O[C@H](CO)[C@@H](O)[C@@H]3O)c2n1 (stereo partly drawn) [Compound 50, 2-Amino-9-β-D-arabinofuranosyl-9H-purine-6-sulfinamide]",T/C,L1210 cells [1],140
same,Max. sol. dosage,[3],800 mg/kg
"NS(=O)(=O)c1ncnc2c1ccn2[C@H]1C[C@H](O)[C@@H](CO)O1 [Compound 55, 7-(2-Deoxy-β-D-erythro-pentofuranosyl)pyrrolo[2,3-d]-pyrimidine-4-sulfonamide]",T/C,L1210 cells [1],125
same,Max. sol. dosage,[3],288 mg/kg
"O=P1(N(CCCl)CCCl)NCCCO1 (centres unmarked) [Cyclophosphamide, reference compound]",Residual cells (% of control brain),L1210 cells [5],11.5%
same,Activity rating δT/δC,[4],113
CN(C)/N=N/c1[nH]cnc1C(N)=O [DTIC],Activity rating δT/δC,[4],92
CN(C)c1nc(N(C)C)nc(N(C)C)n1 [Hexamethylmelamine],Activity rating δT/δC,[4],85
N[C@@H](Cc1ccc(N(CCCl)CCCl)cc1)C(=O)O [Melphalan],Activity rating δT/δC,[4],101
"CN(Cc1cnc2nc(N)nc(N)c2n1)c1ccc(C(=O)N[C@@H](CCC(=O)O)C(=O)O)cc1 [Methotrexate, reference compound]",Residual cells (% of control brain),L1210 cells [5],97%
same,Activity rating δT/δC,[4],66
CC1CCC(NC(=O)N(CCCl)N=O)CC1 (centres unmarked) [Methyl CCNU],Activity rating δT/δC,[4],83
CO[C@@]12[C@H](COC(N)=O)C3=C(C(=O)C(C)=C(N)C3=O)N1C[C@@H]1N[C@@H]12 [Mitomycin C],Activity rating δT/δC,[4],62
CNNCc1ccc(C(=O)NC(C)C)cc1 [Procarbazine],Activity rating δT/δC,[4],60
"NC(=O)c1csc([C@@H]2O[C@H](CO)[C@@H](O)[C@H]2O)n1 [Tiazofurin, reference compound]",% ILS,"L1210 cells [1]; single agent day 1, Compound 19 173 mg/kg, Tiazofurin 22 mg/kg (Table 13)",44%
same,Residual cells (% of control brain),L1210 cells [5],2.9%
CC[C@]1(O)C[C@@H]2CN(CCc3c([nH]c4ccccc34)[C@@](C(=O)OC)(c3cc4c(cc3OC)N(C)[C@H]3[C@@](O)(C(=O)OC)[C@H](OC(C)=O)[C@]5(CC)C=CCN6CC[C@]43[C@@H]65)C2)C1 [Vinblastine],Activity rating δT/δC,[4],119
CC[C@]1(O)C[C@H]2CN(CCc3c([nH]c4ccccc34)[C@@](C(=O)OC)(c3cc4c(cc3OC)N(C=O)[C@H]3[C@@](O)(C(=O)OC)[C@H](OC(C)=O)[C@]5(CC)C=CCN6CC[C@]43[C@@H]65)C2)C1 [Vincristine],Activity rating δT/δC,[4],89
Bleomycin,Activity rating δT/δC,[4],51

# — patent US5026836A, “6-sulfenamide, 6-sulfinamide and 6-sulfonamide purines, purine nucleosides, purine nucleotides, pharmaceutical compositions, and processes of making” (priority 1988, dated 1991)
